From US11160797B2, “Pyridinone derivatives and their use as selective ALK-2 inhibitors” (NOVARTIS AG, priority 2017, dated 2021)

How the values were obtained:
[1] = target: T1, wild-type ALK2 (aa172-499) (Homo sapiens (Human), UniProt Q04771); test: ADPGlo biochemical autophosphorylation assay, ALK2; conditions: 15 uM ATP
[2] = target: T1, wild-type ALK2 (aa172-499); test: Caliper biochemical peptide phosphorylation assay, ALK2; conditions: Caliper peptide phosphorylation, 15 uM ATP; read-out: ALK2 IC50
[3] = target: ALK2 FOP mutant (aa172-499 R206H) (Homo sapiens (Human), UniProt Q04771, R206H); test: Caliper biochemical peptide phosphorylation assay, ALK2 FOP; conditions: Caliper peptide phosphorylation, R206H, 15 uM ATP; read-out: ALK2 FOP EPK IC50
[4] = target: ALK5 (aa162-503) (Homo sapiens (Human), UniProt P36897); test: Caliper biochemical peptide phosphorylation assay, ALK5; conditions: 15 uM ATP
Summary of the method: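 Baculovirus-expressed human GS+kinase-domain constructs (10 nM) with 2 uM fluorescein-labelled peptide and 15 uM ATP in 50 mM Hepes pH 7.5, 1 mM MgCl2, 12 mM MnCl2, 1 mM DTT, 10 uM Na3VO4, 60 min at 30 °C. EDTA stop; phospho/unphosphorylated peptide separated by microfluidic electrophoresis, r = p/(p+s); IC50 at half-maximal signal inhibition.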

[5] = test system: male Sprague Dawley rats; test: Turpentine oil-induced increase in serum hepcidin in rats; type: in vivo, rat; conditions: for Serum hepcidin concentration: 24 h post-TO
Description: Measurements of serum hepcidin concentration were performed using a custom-made LC-MRM assay.
6 hours post-TO application sublingual blood samples were taken and serum was prepared from whole blood using clot activator centrifugation tubes (Sarstedt). […] 24 h post-TO application rats were sacrificed by CO2 overdosing and blood was isolated by venipuncture for serum preparation as described above. […] Statistical analyses were performed using GraphPad Prism software (GraphPad Software, Inc., La Jolla, Calif.) by two-way repeated measurement analysis of variance followed by Dunnett's multiple comparisons post-hoc test comparing treatment groups to the vehicle control group.

[6] = test system: C57BL/6J male mice; conditions: mouse, in vivo
[7] = test system: female Wistar rats; test: Achilles midpoint tenotomy-induced heterotopic ossification in rats; type: in vivo, rat; conditions: 10 mg/kg q.d. oral
Excerpt: To test whether compound A was able to prevent trauma-induced heterotopic ossification (HO) of soft tissue, we tested its therapeutic efficacy in a rat model of unilateral Achilles midpoint tenotomy (Rooney et al., Matrix 12: 274-281, 1992). To this end, the left Achilles tendon of 8-week-old female Wistar rats (body weight between 190-265 g) was completely transected using a sterile scalpel (blade number 11) under isoflurane inhalation narcosis with concomitant analgesic treatment applying 0.03 mg/kg buprenorphine for 48 hours every 10-12 h subcutaneously. Preventive oral treatment with compound A (10 mg/kg q.d.) or vehicle (sodium carboxymethyl cellulose:water:Tween 80, 0.5:99:0.5) was given for 10 weeks starting on the day of surgery (n=11-12 rats per group). […] Treatment efficacy was assessed longitudinally by taking radiographs of the operated distal leg (Faxitron LX-60 system) at 4 and 10 weeks post-tenotomy. Heterotopic bone volume was quantified in vivo by micro-computed tomography (micro-CT) under isoflurane inhalation narcosis (vivaCT40 instrument, Scanco Medical AG; 17.5 μm resolution) at 6 and 9 weeks post-surgery. […]

[8] = test system: ALK2(Q207D) mice; test: ALK2-dependent heterotopic ossification in ALK2(Q207D) transgenic mice; type: in vivo, mouse; conditions: 3 and 5 weeks post-induction, 10 mg/kg b.i.d. oral
[9] = test system: 18-month-old Wistar female rats; test: Bone gain in aged rats (pQCT and micro-CT, proximal tibia metaphysis); type: in vivo, rat; conditions: 5 mg/kg q.d. oral, 8 weeks, mean ± SEM
Description: To assess the bone anabolic potential of compound A, its therapeutic efficacy in aged female rats as a model of age-related human osteoporosis and other low bone mass conditions was tested. To this end, 18-month-old Wistar female rats (n=8-9 rats per group; body weight range: 330-460 g) were subjected to two-month once daily oral treatment with compound A (5 mg/kg q.d.) or vehicle (sodium carboxymethyl cellulose:water:Tween 80, 0.5:99:0.5). Rats were housed at 25° C. with a 12:12 h light-dark cycle and were fed a standard rodent diet containing 18.2% protein and 3.0% fat with an energy content of 15.8 MJ/kg (3890, Provimi Kliba SA) with food and water provided ad libitum. Treatment efficacy was determined by in vivo peripheral quantitative computed tomography (pQCT) and micro-computed tomography (micro-CT) in the left proximal tibia metaphysis under isoflurane inhalation narcosis (Stratec-Norland XCT-2000 pQCT; voxel size: 0.1 mm×0.1 mm×0.5 mm; vivaCT40 instrument, Scanco Medical AG; 12.5 μm resolution) after 8 weeks of treatment. […] The latter was related to enhanced trabecular thickness, but not number. Thus, compound A is bone anabolic in the aged skeleton.

[10] = target: ALK3 (aa198-525) (Homo sapiens (Human), UniProt P36894); test: ADPGlo biochemical autophosphorylation assay, ALK3; conditions: 15 uM ATP
[11] = target: ALK1 (aa166-493) (Homo sapiens (Human), UniProt P37023); test: Caliper biochemical peptide phosphorylation assay, ALK1; conditions: 15 uM ATP
[12] = target: ALK6 (aa168-495) (Homo sapiens (Human), UniProt O00238); test: Caliper biochemical peptide phosphorylation assay, ALK6; conditions: 15 uM ATP
[13] = test system: HuH7 cells, BMP response element (BRE) luciferase reporter, BMP6 stimulated; test: BMP signaling reporter gene assay; type: cell-based; conditions: Homo sapiens, Huh-7; BMP6 100 ng/ml; read-out: MSD HuH7 cell BMP reporter IC50
Description: A human liver hepatocellular carcinoma cell line (HuH7) stably transfected with a reporter plasmid consisting of the human BMP response element (BRE) from the Id1 promoter fused to a luciferase reporter gene was generated through lentiviral transduction.
Assays were performed in 384-well flat bottom polystyrene microtiter plates (cell culture treated) with sterile lids. The cells were starved through medium exchange in Blasticidine- and FCS-free medium 16 h before the assay. Prior to the assay, cells were detached from the stock flask using trypsin/EDTA and counted. A cell suspension in the same medium without Blasticidin and FCS was prepared. 2×10^4 cells in a total volume of 40 ul were added to each well of a plate already containing serial dilutions of each compound in DMSO (final DMSO concentration 0.5%). […] Assay plates are incubated for another 5 hours at 37° C., 5% CO2 before luciferase levels are measured.
The amount of expressed luciferase is quantified using the Steady-Glo® Luciferase Assay System (Promega #E2520).

ALK1 (aa166-493), sequence (P37023 166-493): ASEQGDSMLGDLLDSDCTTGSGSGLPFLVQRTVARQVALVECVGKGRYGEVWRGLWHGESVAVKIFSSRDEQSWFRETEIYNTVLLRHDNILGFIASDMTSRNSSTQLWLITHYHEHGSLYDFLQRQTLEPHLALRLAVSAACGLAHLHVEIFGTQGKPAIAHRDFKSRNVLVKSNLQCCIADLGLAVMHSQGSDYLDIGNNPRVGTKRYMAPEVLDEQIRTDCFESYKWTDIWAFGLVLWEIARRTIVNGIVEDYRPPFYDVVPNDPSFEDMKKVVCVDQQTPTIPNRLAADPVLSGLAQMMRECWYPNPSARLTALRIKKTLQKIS
ALK3 (aa198-525), sequence (P36894 198-525): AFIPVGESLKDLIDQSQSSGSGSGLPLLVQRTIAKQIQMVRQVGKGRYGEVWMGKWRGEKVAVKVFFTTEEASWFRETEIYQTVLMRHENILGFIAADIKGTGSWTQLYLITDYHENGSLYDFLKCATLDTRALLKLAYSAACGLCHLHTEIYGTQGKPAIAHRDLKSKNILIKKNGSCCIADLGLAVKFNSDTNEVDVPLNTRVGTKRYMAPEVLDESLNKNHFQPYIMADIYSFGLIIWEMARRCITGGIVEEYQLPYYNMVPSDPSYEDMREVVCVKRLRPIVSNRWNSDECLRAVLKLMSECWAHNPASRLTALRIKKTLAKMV
ALK2 FOP mutant (aa172-499 R206H), sequence (Q04771 172-499 R206H): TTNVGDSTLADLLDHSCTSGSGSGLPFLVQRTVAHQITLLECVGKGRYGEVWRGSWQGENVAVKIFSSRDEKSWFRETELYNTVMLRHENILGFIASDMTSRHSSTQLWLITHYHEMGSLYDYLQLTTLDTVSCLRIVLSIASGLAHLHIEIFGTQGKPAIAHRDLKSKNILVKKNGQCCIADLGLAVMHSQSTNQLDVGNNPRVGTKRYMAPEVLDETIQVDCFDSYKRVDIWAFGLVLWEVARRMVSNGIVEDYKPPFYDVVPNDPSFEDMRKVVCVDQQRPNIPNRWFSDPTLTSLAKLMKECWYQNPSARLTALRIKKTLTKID
ALK5 (aa162-503), sequence (P36897 162-503): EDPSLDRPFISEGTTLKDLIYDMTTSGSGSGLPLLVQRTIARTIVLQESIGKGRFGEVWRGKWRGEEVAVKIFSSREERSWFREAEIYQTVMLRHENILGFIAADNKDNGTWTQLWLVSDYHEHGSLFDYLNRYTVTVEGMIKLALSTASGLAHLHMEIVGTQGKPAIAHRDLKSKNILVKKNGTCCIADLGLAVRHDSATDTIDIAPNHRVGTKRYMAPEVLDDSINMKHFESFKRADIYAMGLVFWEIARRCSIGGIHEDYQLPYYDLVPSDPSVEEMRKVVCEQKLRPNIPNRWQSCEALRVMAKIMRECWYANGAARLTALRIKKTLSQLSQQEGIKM
ALK6 (aa168-495), sequence (O00238 168-495): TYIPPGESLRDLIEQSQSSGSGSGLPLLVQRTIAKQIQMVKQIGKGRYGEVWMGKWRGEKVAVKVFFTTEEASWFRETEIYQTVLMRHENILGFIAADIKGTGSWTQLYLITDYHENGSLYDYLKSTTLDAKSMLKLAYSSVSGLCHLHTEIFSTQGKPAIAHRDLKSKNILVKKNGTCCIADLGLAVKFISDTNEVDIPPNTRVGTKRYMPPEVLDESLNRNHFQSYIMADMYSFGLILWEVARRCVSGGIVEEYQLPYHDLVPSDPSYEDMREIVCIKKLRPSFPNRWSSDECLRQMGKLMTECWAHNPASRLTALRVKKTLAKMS
T1 sequence (Q04771 172-499): as the sequence (Q04771 172-499 R206H) above, with H35R counted along it

Row | SMILES | IC50 [1] [nM] | IC50 [2] [nM] | IC50 [3] [nM] | IC50 [4] [nM] | IC50 [10] [nM] | IC50 [11] [nM] | IC50 [12] [nM] | IC50 [13] [nM] | other results
1 | CC(C)n1cc(-c2cncc(-c3ccc4c(c3)CC(=O)N4C)c2)ccc1=O [Example 1, 5-(1′-isopropyl-6′-oxo-1′,6′-dihydro-[3,3′-bipyridin]-5-yl)-1-methylindolin-2-one] | 110 | 110 | 90 | 2600 |  |  |  |  | Serum hepcidin levels ([5]; 6 hours post-TO, 3 or 10 mg/kg p.o.): strongly suppressed; Serum hepcidin concentration ([5]; 3 mg/kg p.o.): returned to levels of vehicle-treated TO-challenged rats; Serum hepcidin concentration ([5]; 10 mg/kg p.o., p<0.001): significantly reduced; Blood hemoglobin [6]: significantly improved; Hematocrit [6]: significantly improved; Animals with radiographic evidence of beginning HO ([7]; 4 weeks post-tenotomy, vehicle 100%): 67%; Total heterotopic bone volume ([7]; 6 and 9 weeks post-surgery, versus vehicle): significant reduction of HO; Females in which heterotopic bone was absent (micro-CT) [8]: four of five; Heterotopic bone (total heterotopic bone volume, micro-CT), males [8]: absent; Female mice with radiographic evidence of HO ([8]; vehicle 67%): one out of five; Male mice with radiographic evidence of HO ([8]; vehicle 83%): none; Cancellous BV/TV, %-change versus baseline ([9]; micro-CT): 8.9 ± 3.0 %; Cortical thickness, %-change versus baseline ([9]; micro-CT): 12.0 ± 2.2 %; Total BMD, %-change versus baseline ([9]; micro-CT): 5.6 ± 0.6 %; Trabecular number, %-change versus baseline ([9]; micro-CT): −0.6 ± 5.4%; Trabecular thickness, %-change versus baseline ([9]; micro-CT): 11.1 ± 2.9 %; Total BMC, %-change versus baseline ([9]; pQCT): 4.3 ± 1.7 %
2 | CC(C)n1cc(-c2cncc(-c3ccc4c(c3)CC(=O)N4CCO)c2)ccc1=O [Example 45, 1-(2-hydroxyethyl)-5-(1′-isopropyl-6′-oxo-1′,6′-dihydro-[3,3′-bipyridin]-5-yl)indolin-2-one] | 160 | 120 | 100 | 5000 | 1100 | 890 | 1250 | 210 | 
3 | CC(C)n1cc(-c2cncc(-c3ccc4c(c3)CC(=O)N4C)n2)ccc1=O [Example 46, 5-(6-(1-isopropyl-6-oxo-1,6-dihydropyridin-3-yl)pyrazin-2-yl)-1-methylindolin-2-one] | 150 | 120 | 110 | 5000 | 930 | 620 | 2500 | 130 | 
4 | CC(C)n1cc(-c2cncc(-c3ccc4c(c3)CC(=O)N4CCCO)c2)ccc1=O [Example 47, 1-(3-hydroxypropyl)-5-(1′-isopropyl-6′-oxo-1′,6′-dihydro-[3,3′-bipyridin]-5-yl)indolin-2-one] | 175 | 140 | 150 | 4200 | 1120 | 1100 | 1500 | 280 | 
5 | CC(C)n1cc(-c2cncc(-c3ccc4c(c3)CS(=O)(=O)N4C)c2)ccc1=O [Example 48, 1-isopropyl-5′-(1-methyl-2,2-dioxido-1,3-dihydrobenzo[c]isothiazol-5-yl)-[3,3′-bipyridin]-6(1H)-one] | 71 | 60 | 60 | 2400 | 283 | 210 | 1000 | 83 | 
